Bridge positions count the residues as written; N and C are the ends. Square brackets hold non-standard residues; d marks the D form. Peptide text beside a SMILES is read from it. Bip = N[C@@H](Cc1ccc(-c2ccccc2)cc1)C(=O)O; NMeY = CN[C@@H](Cc1ccc(O)cc1)C(=O)O; NMePhg = CN[C@H](C(=O)O)c1ccccc1; Cit = NC(=O)NCCC[C@H](N)C(=O)O; NMeNle = CCCC[C@H](NC)C(=O)O; NMeA = CN[C@@H](C)C(=O)O; Orn = NCCC[C@H](N)C(=O)O; Dab = NCC[C@H](N)C(=O)O; Dap = NC[C@H](N)C(=O)O
target: T1, PE-labeled human PD-L1-Ig binding to Jurkat cell line over-expressing human PD-1 (Jurkat-PD-1) (Homo sapiens, UniProt Q15116); assay: Jurkat-PD-1 Cell Binding High-Content Screening Assay (CBA): Method 1; conditions: Jurkat-hPD-1 cells, PE-labeled PD-L1-Ig 20 nM final; read-out: Jurkat HPDL1 PD1 IC50 (uM) (Method 1)
T1 construct: expressed in transfected cells; host or cells: Jurkat
T1 sequence (Q15116 25-288): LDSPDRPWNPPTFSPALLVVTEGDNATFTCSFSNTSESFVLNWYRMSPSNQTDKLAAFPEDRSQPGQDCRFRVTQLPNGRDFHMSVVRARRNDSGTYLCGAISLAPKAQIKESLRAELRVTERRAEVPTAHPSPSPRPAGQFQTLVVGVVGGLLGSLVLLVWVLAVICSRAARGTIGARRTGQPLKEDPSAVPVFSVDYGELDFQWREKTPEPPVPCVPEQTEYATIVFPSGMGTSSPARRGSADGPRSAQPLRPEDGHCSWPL

Row | Compound | IC50 [µM]
1 | CC(C)C[C@@H]1NC(=O)[C@H](CCN)NC(=O)[C@@H](CC(C)C)NC(=O)[C@H](C)N(C)C(=O)[C@H](CCCNC(N)=O)NC(=O)[C@H](Cc2ccc(-c3ccccc3)cc2)NC(=O)[C@H](C(C)C)NC(=O)[C@H](Cc2c[nH]c3ccccc23)NC(=O)[C@H](CC(=O)O)NC(=O)[C@H](Cc2ccc(O)cc2)NC(=O)[C@H](Cc2cnc[nH]2)NC(=O)CSC[C@@H](C(=O)N[C@@H](C)C(N)=O)NC(=O)[C@H]([C@@H](C)O)NC(=O)[C@H](C(C)C)NC1=O [Compound 1356] ({CH2CO}-HYDWV[Bip][Cit][NMeA][dL][Dab]LVTCA-NH2; thioether N-14) | 0.02
2 | CC(C)C[C@@H]1NC(=O)[C@H](CCN)NC(=O)[C@@H](CC(C)C)NC(=O)[C@H](C)N(C)C(=O)[C@H](C(C)C)NC(=O)[C@H](Cc2ccc(-c3ccccc3)cc2)NC(=O)[C@H](C(C)C)NC(=O)[C@H](Cc2c[nH]c3ccccc23)NC(=O)[C@H](CC(=O)O)NC(=O)[C@H](Cc2ccc(O)cc2)NC(=O)[C@H](Cc2cnc[nH]2)NC(=O)CSC[C@@H](C(=O)N[C@@H](C)C(N)=O)NC(=O)[C@H]([C@@H](C)O)NC(=O)[C@H](C(C)C)NC1=O [Compound 1358] ({CH2CO}-HYDWV[Bip]V[NMeA][dL][Dab]LVTCA-NH2; thioether N-14) | 0.01
3 | CC(C)C[C@@H]1NC(=O)[C@H](CCN)NC(=O)[C@@H](CC(C)C)NC(=O)[C@H](C)N(C)C(=O)[C@H](C(C)C)NC(=O)[C@H](Cc2ccc(-c3ccccc3)cc2)NC(=O)[C@H](C(C)C)NC(=O)[C@H](Cc2c[nH]c3ccccc23)NC(=O)[C@H](CC(=O)O)NC(=O)[C@H](Cc2ccc(O)cc2)NC(=O)[C@H](CCC(N)=O)NC(=O)CSC[C@@H](C(=O)N[C@@H](C)C(N)=O)NC(=O)[C@H]([C@@H](C)O)NC(=O)[C@H](C(C)C)NC1=O [Compound 1359] ({CH2CO}-QYDWV[Bip]V[NMeA][dL][Dab]LVTCA-NH2; thioether N-14) | 0.05
4 | CC(C)C[C@@H]1NC(=O)[C@H](CCN)NC(=O)[C@@H](CC(C)C)NC(=O)[C@H](Cc2ccc(O)cc2)N(C)C(=O)[C@H](C(C)C)NC(=O)[C@H](Cc2ccc(-c3ccccc3)cc2)NC(=O)[C@H](C(C)C)NC(=O)[C@H](Cc2c[nH]c3ccccc23)NC(=O)[C@H](CC(=O)O)NC(=O)[C@H](Cc2ccc(O)cc2)NC(=O)[C@H](CC(N)=O)NC(=O)CSC[C@@H](C(=O)N[C@@H](C)C(N)=O)NC(=O)[C@H]([C@@H](C)O)NC(=O)[C@H](C(C)C)NC1=O [Compound 1364] ({CH2CO}-NYDWV[Bip]V[NMeY][dL][Dab]LVTCA-NH2; thioether N-14) | 0.01
5 | CCCC[C@H]1C(=O)N[C@H](CC(C)C)C(=O)N[C@@H](CCN)C(=O)N[C@@H](CC(C)C)C(=O)N[C@@H](C(C)C)C(=O)N[C@@H]([C@@H](C)O)C(=O)N[C@H](C(=O)N[C@@H](C)C(N)=O)CSCC(=O)N[C@@H](CC(N)=O)C(=O)N[C@@H](Cc2ccc(O)cc2)C(=O)N[C@@H](CC(=O)O)C(=O)N[C@@H](Cc2c[nH]c3ccccc23)C(=O)N[C@@H](C(C)C)C(=O)N[C@@H](Cc2ccc(-c3ccccc3)cc2)C(=O)N[C@@H](C(C)C)C(=O)N1C [Compound 1365] ({CH2CO}-NYDWV[Bip]V[NMeNle][dL][Dab]LVTCA-NH2; thioether N-14) | 0.01

The remaining compounds from weak to strong by IC50, led by results:

Row | IC50 [µM] | Compound
6 | 0.11 | CC(C)C[C@@H]1NC(=O)[C@H](CCN)NC(=O)[C@@H](CC(C)C)NC(=O)[C@H](C)N(C)C(=O)[C@H](CCCN)NC(=O)[C@H](Cc2ccc(-c3ccccc3)cc2)NC(=O)[C@H](C(C)C)NC(=O)[C@H](Cc2c[nH]c3ccccc23)NC(=O)[C@H](CC(=O)O)NC(=O)[C@H](Cc2ccc(O)cc2)NC(=O)[C@H](CCC(N)=O)NC(=O)CSC[C@@H](C(=O)N[C@@H](C)C(N)=O)NC(=O)[C@H]([C@@H](C)O)NC(=O)[C@H](C(C)C)NC1=O [Compound 1363] ({CH2CO}-QYDWV[Bip][Orn][NMeA][dL][Dab]LVTCA-NH2; thioether N-14)
7 | 0.06 | CC(C)C[C@@H]1NC(=O)[C@H](CCN)NC(=O)[C@@H](CC(C)C)NC(=O)[C@H](C)N(C)C(=O)[C@H](CCCNC(N)=O)NC(=O)[C@H](Cc2ccc(-c3ccccc3)cc2)NC(=O)[C@H](C(C)C)NC(=O)[C@H](Cc2c[nH]c3ccccc23)NC(=O)[C@H](CC(=O)O)NC(=O)[C@H](Cc2ccc(O)cc2)NC(=O)[C@H](CCC(N)=O)NC(=O)CSC[C@@H](C(=O)N[C@@H](C)C(N)=O)NC(=O)[C@H]([C@@H](C)O)NC(=O)[C@H](C(C)C)NC1=O [Compound 1357] ({CH2CO}-QYDWV[Bip][Cit][NMeA][dL][Dab]LVTCA-NH2; thioether N-14)
8 | 0.03 | CC(C)C[C@@H]1NC(=O)[C@H](CCN)NC(=O)[C@@H](CC(C)C)NC(=O)[C@H](C)N(C)C(=O)[C@H](CCCN)NC(=O)[C@H](Cc2ccc(-c3ccccc3)cc2)NC(=O)[C@H](C(C)C)NC(=O)[C@H](Cc2c[nH]c3ccccc23)NC(=O)[C@H](CC(=O)O)NC(=O)[C@H](Cc2ccc(O)cc2)NC(=O)[C@H](Cc2cnc[nH]2)NC(=O)CSC[C@@H](C(=O)N[C@@H](C)C(N)=O)NC(=O)[C@H]([C@@H](C)O)NC(=O)[C@H](C(C)C)NC1=O [Compound 1362] ({CH2CO}-HYDWV[Bip][Orn][NMeA][dL][Dab]LVTCA-NH2; thioether N-14)
9 | 0.03 | CC(C)C[C@@H]1NC(=O)[C@H](CCN)NC(=O)[C@@H](CC(C)C)NC(=O)[C@H](c2ccccc2)N(C)C(=O)[C@H](C(C)C)NC(=O)[C@H](Cc2ccc(-c3ccccc3)cc2)NC(=O)[C@H](C(C)C)NC(=O)[C@H](Cc2c[nH]c3ccccc23)NC(=O)[C@H](CC(=O)O)NC(=O)[C@H](Cc2ccc(O)cc2)NC(=O)[C@H](CC(N)=O)NC(=O)CSC[C@@H](C(=O)N[C@@H](C)C(N)=O)NC(=O)[C@H]([C@@H](C)O)NC(=O)[C@H](C(C)C)NC1=O [Compound 1366] ({CH2CO}-NYDWV[Bip]V[NMePhg][dL][Dab]LVTCA-NH2; thioether N-14)
10 | 0.02 | CC(C)C[C@@H]1NC(=O)[C@H](CCN)NC(=O)[C@@H](CC(C)C)NC(=O)[C@H](C)N(C)C(=O)[C@H](C(C)C)NC(=O)[C@H](Cc2ccc(-c3ccccc3)cc2)NC(=O)[C@H](C(C)C)NC(=O)[C@H](Cc2c[nH]c3ccccc23)NC(=O)[C@H](CC(=O)O)NC(=O)[C@H](Cc2ccc(O)cc2)NC(=O)[C@H](CN)NC(=O)CSC[C@@H](C(=O)N[C@@H](C)C(N)=O)NC(=O)[C@H]([C@@H](C)O)NC(=O)[C@H](C(C)C)NC1=O [Compound 1360] ({CH2CO}-[Dap]YDWV[Bip]V[NMeA][dL][Dab]LVTCA-NH2; thioether N-14)
11 | 0.01 | CC(C)C[C@@H]1NC(=O)[C@H](CCN)NC(=O)[C@@H](CC(C)C)NC(=O)[C@H](C)N(C)C(=O)[C@H](C(C)C)NC(=O)[C@H](Cc2ccc(-c3ccccc3)cc2)NC(=O)[C@H](C(C)C)NC(=O)[C@H](Cc2c[nH]c3ccccc23)NC(=O)[C@H](CC(=O)O)NC(=O)[C@H](Cc2ccc(O)cc2)NC(=O)[C@H](CCN)NC(=O)CSC[C@@H](C(=O)N[C@@H](C)C(N)=O)NC(=O)[C@H]([C@@H](C)O)NC(=O)[C@H](C(C)C)NC1=O [Compound 1361] ({CH2CO}-[Dab]YDWV[Bip]V[NMeA][dL][Dab]LVTCA-NH2; thioether N-14)

Reference: patent US20240409585A1, “MACROCYCLIC IMMUNOMODULATORS” (priority 2021, published 2024)
